# Measured values taken from patent publication US7235536B2, “Cellulose sulfate and other sulfated polysaccharides to prevent and treat papilloma virus infection and other infections” (Rush Presbyterian-St. Luke's Medical Center, priority 2000, dated 2007).
# Where “and” joins values, the source holds several entries; their conditions need not be identical. Identical values can stand only once.
# What was measured:
# [1] = in vivo
# Description: Cellulose sulfate offers a further advantage in that irritation by a cytotoxic agent can cause lesions which may facilitate infection and the use of cellulose sulfate is not associated with such risks of infection.
# [2] = tested on: Peptostreptococcus tetradius; assay: Broth method MIC; assay type: cell-based; settings: for CS MIC: Broth (study 2)
# [3] = tested on: Fusobacterium gonidiaformans; assay: Broth method MIC; assay type: cell-based; settings: for CS MIC: Broth (study 2)
# [4] = tested on: trichomonas vaginalis; assay: Inhibition of Trichomonas growth, live count; assay type: cell-based; settings: for number of live trichomonas: 5 mg/ml
# Method: The inhibitory effect of CS on trichomonas vaginalis, protozoa known to cause vaginitis, is shown below. The organisms were grown in modified Diamond's medium. CS was mixed with the organism in modified Diamond's medium at a final concentration of about 5 mg/ml (5.12 mg/ml) and incubated anaerobically at 35° C. Samples were collected at various time points and the number of live trichomonas counted with a hemacytomer. The same procedure was performed in the absence of CS. The volume of the inoculum was varied as indicated in the Tables to study the effect of increasing amounts of the organism on the results.
# [5] = tested on: Bovine Papillomavirus type I; assay: BPV cell focus formation assay (Tables A, B); assay type: cell-based, bovine papilloma virus
# Method: Cellulose sulfate was tested for its ability to inhibit BPV infection by cell focus formation assay (see Hermonat et al. (1992) for a description of this assay). Cellulose sulfate from Dextran Products Limited (Lot 80971 in the form of sodium cellulose sulfate, known as Ushercell J.) was mixed with BPV type I (obtained from bovine fibropapillomas) prior to adding the virus to mouse fibroblast line […] cells or mixed with these host cells first prior to adding the virus. In one molecular weight study, the Mr range of cellulose sulfate was about 750 to 20.3 million, with an average Mr of about 1.01 million. […] In another study, the average molecular weight was determined to be about 1.9 million with a peak Mr of about 2.3 million. Unless otherwise specified, the Mr is in daltons. The assay was repeated using different concentrations of cellulose sulfate and the results are shown below.
# [6] = tested on: Porphyromonas asaccharolytica; assay: Broth method MIC; assay type: cell-based; settings: for CS MIC: Broth (study 2)
# [7] = tested on: Prevotella disiens; assay: Broth method MIC; assay type: cell-based; settings: for CS MIC: Broth (study 2)
# [8] = tested on: Clostridium perfringes; assay: Broth method MIC; assay type: cell-based; settings: for CS MIC: Broth (study 2)
# [9] = tested on: Porphyromonas asaccharolytica; assay: Agar method MIC; assay type: cell-based; settings: for CS MIC: Agar
substance,measurement,setting,value
sodium cellulose sulfate,tolerability versus K-Y Jelly,[1],as well as or even better than K-Y Jelly
same,tolerability versus nonoxynol-9,[1],better tolerated than nonoxynol-9
same,growth inhibition,[2]; all strains,inhibited
same,CS MIC,[2]; rma# 11253,5 mg/mL
same,CS MIC,[2]; rma# 11287,5 mg/mL
same,growth inhibition,"[3]; both strains, broth method",inhibited
same,CS MIC,[3]; rma# 11423,5 mg/mL
same,CS MIC,[3]; rma# 11653,5 mg/mL
same,growth of the trichomonas culture,[4]; 5 mg/ml CS,Complete inhibition of growth
same,number of live trichomonas,"[4]; 16 hr, 50 μl Trich",0 organisms per ml
same,number of live trichomonas,"[4]; 16 hr, 100 μl Trich",0 organisms per ml
same,number of live trichomonas,"[4]; 16 hr, 200 μl Trich",0 organisms per ml
same,number of live trichomonas,"[4]; 16 hr, 400 μl Trich",0 organisms per ml
same,number of live trichomonas,"[4]; 24 hr, 50 μl Trich",0 organisms per ml
same,number of live trichomonas,"[4]; 24 hr, 100 μl Trich",0 organisms per ml
same,number of live trichomonas,"[4]; 24 hr, 200 μl Trich",0 organisms per ml
same,number of live trichomonas,"[4]; 24 hr, 400 μl Trich",0 organisms per ml
same,number of live trichomonas,"[4]; 40 hr, 50 μl Trich",0 organisms per ml
same,number of live trichomonas,"[4]; 40 hr, 100 μl Trich",0 organisms per ml
same,number of live trichomonas,"[4]; 40 hr, 200 μl Trich",0 organisms per ml
same,number of live trichomonas,"[4]; 40 hr, 400 μl Trich",0 organisms per ml
same,number of live trichomonas,"[4]; 48 hr, 50 μl Trich",0 organisms per ml
same,number of live trichomonas,"[4]; 48 hr, 100 μl Trich",0 organisms per ml
same,number of live trichomonas,"[4]; 48 hr, 200 μl Trich",0 organisms per ml
same,number of live trichomonas,"[4]; 48 hr, 400 μl Trich",0 organisms per ml
same,inhibition of infection,"[5]; 40 μg/ml, mixed first with the virus",partial inhibition
same,inhibition of infection,"[5]; 40 μg/ml, pre-incubated with host cells",Complete inhibition
same,inhibition of infection,"[5]; 200 ug/ml, pre-incubated with the virus before addition to the host cells",almost complete inhibition
same,formation of oncogenic foci by the virus,"[5]; 500 μg/ml, mixed with the virus or with the host cells",completely inhibited
same,Viral-induced foci per culture,"[5]; Table A, 5.0 μg/ml, pre-incubated with host cells prior to addition to virus",72 foci per culture and 60 foci per culture
same,Viral-induced foci per culture,"[5]; Table A, 5.0 μg/ml, pre-incubated with virus prior to addition to host cells",121 foci per culture and 97 foci per culture
same,Viral-induced foci per culture,"[5]; Table A, 50 μg/ml, pre-incubated with host cells prior to addition to virus",10 foci per culture and 12 foci per culture
same,Viral-induced foci per culture,"[5]; Table A, 50 μg/ml, pre-incubated with virus prior to addition to host cells",37 foci per culture and 32 foci per culture
same,Viral-induced foci per culture,"[5]; Table A, 500 μg/ml, pre-incubated with host cells prior to addition to virus",0^A foci per culture and 0 foci per culture
same,Viral-induced foci per culture,"[5]; Table A, 500 μg/ml, pre-incubated with virus prior to addition to host cells",0^A foci per culture and 0 foci per culture
same,Viral-induced foci per culture,"[5]; Table A, 5000 μg/ml, pre-incubated with host cells prior to addition to virus",0^B foci per culture and 0 foci per culture
same,Viral-induced foci per culture,"[5]; Table A, 5000 μg/ml, pre-incubated with virus prior to addition to host cells",0^B foci per culture and 0 foci per culture
same,Viral-induced foci per culture,"[5]; Table B, 1.6 μg/ml, pre-incubated with virus prior to addition to host cells",196 foci per culture and 168 foci per culture
same,Viral-induced foci per culture,"[5]; Table B, 8.0 μg/ml, pre-incubated with host cells prior to addition to virus",5 foci per culture and 3 foci per culture
same,Viral-induced foci per culture,"[5]; Table B, 40 μg/ml, pre-incubated with host cells prior to addition to virus",0 foci per culture
same,Viral-induced foci per culture,"[5]; Table B, 40 μg/ml, pre-incubated with virus prior to addition to host cells",116 foci per culture and 104 foci per culture
same,Viral-induced foci per culture,"[5]; Table B, 200 μg/ml, pre-incubated with host cells prior to addition to virus",0 foci per culture
same,Viral-induced foci per culture,"[5]; Table B, 200 μg/ml, pre-incubated with virus prior to addition to host cells",34 foci per culture and 42 foci per culture
same,growth inhibition,[6]; at the concentrations tested,Two strains of Porphyromonas asaccharolytica were inhibited but a third one was not
same,CS MIC,[6]; rma# 11656,5 mg/mL
same,CS MIC,[6]; rma# 11690,NI (not inhibited by 10 mg/ml (the highest concentration tested))
same,growth inhibition,[7]; all strains,inhibited
same,CS MIC,[7]; rma# 11579,10 mg/mL
same,CS MIC,[7]; rma# 11698,10 mg/mL
same,growth inhibition,[8]; at the concentrations tested,inhibited one strain of Clostridium perfringes but not another one
same,CS MIC,[8]; rma# 11608,10 mg/mL
same,CS MIC,[8]; rma# 11655,NI (not inhibited by 10 mg/ml (the highest concentration tested))
same,lowest concentration of compound that inhibited growth,"[9]; Example 8, agar, 48 hours anaerobic, highest tested 625 μg/ml",80 µg/mL
same,CS MIC,[9]; rma# 11612,0.08 mg/mL
same,CS MIC,[9]; rma# 11656,>0.625 mg/mL
